Test results published in patent publication US6737383B1, “Herbicidal oxadiazolidines” (priority 1999, dated 2004).

Experiments:
pigweed = experiment: Test B pre/postemergence pigweed; type: in vivo, Amaranthus retroflexus
Procedure, shortened: (§1)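 Response is a visual 0-to-10 score relative to untreated plants, where 0 means no effect and 10 means complete control, taken twelve to sixteen days after application. Treatments went onto soil at planting and onto foliage of 1- to 4-leaf plants, using a surfactant-containing non-phytotoxic solvent.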

duck salad = experiment: Test B flood test duck salad; type: in vivo, Heteranthera limosa
Procedure, shortened: (§2)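 Plants were grown to the 2-leaf stage before treatment with test chemical, then held in a greenhouse for twelve to sixteen days. Injury was visually rated against untreated controls on a 0–10 scale, where 0 is no effect and 10 is complete control.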

sugar beet = experiment: Test B pre/postemergence sugar beet; type: in vivo, Beta vulgaris
Procedure, shortened: as §1

corn = experiment: Test B pre/postemergence corn; type: in vivo, Zea mays
Procedure, shortened: as §1

velvetleaf = experiment: Test B pre/postemergence velvetleaf; type: in vivo, Abutilon theophrasti
Procedure, shortened: as §1

rice = experiment: Test B flood test rice; type: in vivo, Oryza sativa
Procedure, shortened: as §2

wheat = experiment: Test B pre/postemergence wheat; type: in vivo, Triticum aestivum
Procedure, shortened: as §1

crabgrass = experiment: Test B pre/postemergence crabgrass; type: in vivo, Digitaria sanguinalis
Procedure, shortened: as §1

wild oat = experiment: Test B pre/postemergence wild oat; type: in vivo, Avena fatua
Procedure, shortened: as §1

cocklebur = experiment: Test B pre/postemergence cocklebur; type: in vivo, Xanthium strumarium
Procedure, shortened: as §1

blackgrass = experiment: Test B pre/postemergence blackgrass; type: in vivo, Alopecurus myosuroides
Procedure, shortened: as §1

purple nutsedge = experiment: Test B pre/postemergence purple nutsedge; type: in vivo, Cyperus rotundus
Procedure, shortened: as §1

surinam grass = experiment: Test B pre/postemergence surinam grass; type: in vivo, Brachiaria decumbens
Procedure, shortened: as §1

giant foxtail = experiment: Test B pre/postemergence giant foxtail; type: in vivo, Setaria faberii
Procedure, shortened: as §1

soybean = experiment: Test B pre/postemergence soybean; type: in vivo, Glycine max
Procedure, shortened: as §1

[1] = Postemergence, Rate 62 g/ha, scale 0 to 10, 0 is no effect, 10 is complete control
[2] = Postemergence, Rate 125 g/ha, scale of 0 to 10 where 0 is no effect and 10 is complete control
[3] = Postemergence, Rate 250 g/ha, scale of 0 to 10, 0 is no effect, 10 is complete control
[4] = Preemergence, Rate 62 g/ha, scale of 0 to 10 where 0 is no effect and 10 is complete control
[5] = Preemergence, Rate 125 g/ha, scale of 0 to 10 where 0 is no effect and 10 is complete control
[6] = Preemergence, Rate 250 g/ha, scale 0 to 10 (0 no effect, 10 complete control)
[7] = Preemergence, Rate 500 g/ha, scale of 0 to 10 where 0 is no effect and 10 is complete control
[8] = Rate 62 g/ha, flood test species, Pre-emergence, visual evaluation after twelve to sixteen days
[9] = Rate 125 g/ha, under heading Pre-emergence, flood test species, visual evaluation after twelve to sixteen days
[10] = Rate 250 g/ha, Pre-emergence (flood test species), scale 0 to 10, 0 is no effect, 10 is complete control
[11] = Rate 500 g/ha, Pre-emergence section of Table B, 0 to 10 scale (0 no effect, 10 complete control)
[12] = Postemergence, Rate 500 g/ha, scale of 0 to 10 where 0 is no effect and 10 is complete control

CC(C)N(C(=O)n1oc(=O)n(CC(=O)C2CCC2)c1=O)c1ccc(F)cc1 [Compound 640]
10: Plant response rating, Crabgrass (crabgrass; [7]) | Plant response rating, Giant foxtail (giant foxtail; [6])
3: Plant response rating, Velvetleaf (velvetleaf; [2]) | Velvetleaf plant response rating (velvetleaf; [3]) | Crabgrass plant response rating (crabgrass; [3]) | Crabgrass plant response rating (crabgrass; [4]) | Crabgrass plant response rating (crabgrass; [5]) | Plant response rating, Wild oats (wild oat; [6])
6: Plant response rating, Sugarbeets (sugar beet; [6]) | Plant response rating, Sugarbeets (sugar beet; [7]) | Plant response rating, Crabgrass (crabgrass; [12]) | Plant response rating, Wild oats (wild oat; [7])
8: Plant response rating, Blackgrass (blackgrass; [7])
5: Plant response rating, Cocklebur (cocklebur; [12]) | Plant response rating, Blackgrass (blackgrass; [12])
0: Plant response rating, Redroot pigweed (pigweed; [1]) | Plant response rating, Redroot pigweed (pigweed; [2]) | Redroot pigweed plant response rating (pigweed; [4]) | Redroot pigweed plant response rating (pigweed; [5]) | Plant response rating, Ducksalad (0 to 10 scale, 0 is no effect, 10 is complete control) (duck salad; [8]) | Ducksalad plant response rating (0 to 10 scale, 0 is no effect, 10 is complete control) (duck salad; [9]) | Ducksalad plant response rating (duck salad; [10]) | Ducksalad plant response rating (duck salad; [11]) | Plant response rating, Sugarbeets (sugar beet; [1]) | Plant response rating, Sugarbeets (sugar beet; [2]) | Sugarbeets plant response rating (sugar beet; [3]) | Sugarbeets plant response rating (sugar beet; [4]) | Plant response rating, Corn (corn; [1]) | Plant response rating, Corn (corn; [2]) | Corn plant response rating (corn; [3]) | Plant response rating, Corn (corn; [12]) | Corn plant response rating (corn; [4]) | Corn plant response rating (corn; [5]) | Plant response rating, Corn (corn; [6]) | Plant response rating, Corn (corn; [7]) | Plant response rating, Velvetleaf (velvetleaf; [1]) | Velvetleaf plant response rating (velvetleaf; [4]) | Velvetleaf plant response rating (velvetleaf; [5]) | Plant response rating, Velvetleaf (velvetleaf; [6]) | Plant response rating, Velvetleaf (velvetleaf; [7]) | Plant response rating, Rice (0 to 10 scale, 0 is no effect, 10 is complete control) (rice; [8]) | Rice plant response rating (0 to 10 scale, 0 is no effect, 10 is complete control) (rice; [9]) | Rice plant response rating (rice; [10]) | Rice plant response rating (rice; [11]) | Plant response rating, Wheat (wheat; [1]) | Plant response rating, Wheat (wheat; [2]) | Wheat plant response rating (wheat; [3]) | Wheat plant response rating (wheat; [4]) | Wheat plant response rating (wheat; [5]) | Plant response rating, Wheat (wheat; [6]) | Plant response rating, Crabgrass (crabgrass; [1]) | Plant response rating, Wild oats (wild oat; [1]) | Plant response rating, Wild oats (wild oat; [2]) | Wild oats plant response rating (wild oat; [3]) | Wild oats plant response rating (wild oat; [4]) | Wild oats plant response rating (wild oat; [5]) | Plant response rating, Cocklebur (cocklebur; [1]) | Plant response rating, Cocklebur (cocklebur; [2]) | Cocklebur plant response rating (cocklebur; [4]) | Cocklebur plant response rating (cocklebur; [5]) | Plant response rating, Cocklebur (cocklebur; [6]) | Plant response rating, Cocklebur (cocklebur; [7]) | Plant response rating, Blackgrass (blackgrass; [1]) | Blackgrass plant response rating (blackgrass; [4]) | Blackgrass plant response rating (blackgrass; [5]) | Plant response rating, Blackgrass (blackgrass; [6]) | Plant response rating, Nutsedge (purple nutsedge; [1]) | Plant response rating, Nutsedge (purple nutsedge; [2]) | Nutsedge plant response rating (purple nutsedge; [3]) | Nutsedge plant response rating (purple nutsedge; [4]) | Nutsedge plant response rating (purple nutsedge; [5]) | Plant response rating, Nutsedge (purple nutsedge; [7]) | Plant response rating, B. signalgrass (surinam grass; [1]) | Plant response rating, B. signalgrass (surinam grass; [2]) | B. signalgrass plant response rating (surinam grass; [3]) | B. signalgrass plant response rating (surinam grass; [4]) | Plant response rating, Giant foxtail (giant foxtail; [1]) | Plant response rating, Giant foxtail (giant foxtail; [2]) | Giant foxtail plant response rating (giant foxtail; [3]) | Plant response rating, Soybean (soybean; [1]) | Plant response rating, Soybean (soybean; [2]) | Soybean plant response rating (soybean; [3]) | Soybean plant response rating (soybean; [4]) | Soybean plant response rating (soybean; [5]) | Plant response rating, Soybean (soybean; [6]) | Plant response rating, Soybean (soybean; [7])
2: Plant response rating, Redroot pigweed (pigweed; [6]) | Sugarbeets plant response rating (sugar beet; [5]) | Plant response rating, Wheat (wheat; [7]) | Plant response rating, Crabgrass (crabgrass; [2]) | Cocklebur plant response rating (cocklebur; [3]) | B. signalgrass plant response rating (surinam grass; [5])
4: Redroot pigweed plant response rating (pigweed; [3]) | Plant response rating, Blackgrass (blackgrass; [2]) | Plant response rating, B. signalgrass (surinam grass; [12]) | Plant response rating, B. signalgrass (surinam grass; [6]) | Plant response rating, Giant foxtail (giant foxtail; [12])
9: Plant response rating, Crabgrass (crabgrass; [6]) | Plant response rating, B. signalgrass (surinam grass; [7]) | Giant foxtail plant response rating (giant foxtail; [4]) | Giant foxtail plant response rating (giant foxtail; [5]) | Plant response rating, Giant foxtail (giant foxtail; [7])
7: Plant response rating, Redroot pigweed (pigweed; [7])
